Measured values from US20240390351A1, “MYCOBACTERIUM ABSCESSUS GROWTH INHIBITOR AND MODEL” (priority 2021, published 2024).
Converted amounts (≈) assume the structure as drawn.

Legend:
[1] = test system: M. abscessus subsp. abscessus ATCC 19977; assay: Growth inhibition dose-response assay, broth microdilution in CAMH medium; format: cell-based, Mycobacterium abscessus subsp. abscessus; settings: Mycobacteroides abscessus, ATCC19977; M. abscessus subsp. abscessus ATCC 19977, CAMH medium; concentration that inhibits 50% of growth; read-out: minimum inhibitory concentration (MIC50), growth inhibition
Description: The M. abscessus subsp. abscessus ATCC 19977 strain was used. The Mab strain was maintained in CAMH broth, which was prepared according to the manufacturer's instructions. The growth inhibition dose-response assay was carried out using the broth microdilution method as described previously (Moreira, W., Aziz, D. B. & Dick T., Front. Microbiol. 2016, 7, 199). The MIC50 reported represents the concentration that inhibits 50% of growth compared with the untreated culture.

[2] = test system: intracellular ATP synthesis of M. abscessus subsp. abscessus; assay: Whole-cell ATP measurement (BacTiter-Glo), intracellular ATP synthesis inhibition; format: cell-based, Mycobacterium abscessus subsp. abscessus; settings: Mycobacteroides abscessus, CAMH medium, 24 h, read-out: inhibitory concentration (IC50) for intracellular ATP levels
Description: Clear 96-well flat-bottom cell culture plates (Nunc) were filled with 100 μL of CAMH medium in each well. The compound was added to the first well in each row to create two times the desired highest final concentration. Subsequently, a […] twofold serial dilution was carried out starting from the first well in each row. Mab, which was grown to mid-exponential phase, was diluted to an optical density at 600 nm (OD600) of 0.1; 100 μL of the diluted culture was added to each well to create a final OD600 of 0.05 in all the wells. The plates were incubated at 37° C. on a standing incubator for 24 h. At the end of the incubation period, the samples were measured for their intrabacterial ATP content by employing the BacTiter-Glo microbial cell viability assay (Promega), which was carried out according to the manufacturer's instructions as described previously (Hotra, A. et al., Angew. Chem. Int. Ed. Engl. 2020, 59, 13295-13304). […] Luminescence was measured with Cytation 5 multi-mode reader after 10 min of incubation of the plate in the dark at room temperature. The background luminescence reading was subtracted from the luminescence readings of all the samples. The ATP amount is directly proportional to the relative luminescence units. […]
The similar IC50- and MIC50 values determined, indicate that ATP synthesis catalyzed by the F-ATP synthase is the major cause of cell growth inhibition.

[3] = biological target: T1, Mabε (M. abscessus F-ATP synthase subunit ε) (Mycobacteroides abscessus, UniProt B1MLW3); assay: 1H-15N-HSQC NMR titration and R2 relaxation of Mabε with compound; format: binding, Mycobacterium abscessus; settings: 1:5 molar ratio of Mabε and Ep1MabF1; residues V9, A10, R13, E14, G68-I72, V77, I79-A81
T1 construct: made in house; host or cells: Escherichia coli C41 (DE3)
Description: All NMR experiments were carried out on a BrukerAvance 700-MHz spectrometer, which was equipped with a cryoprobe at 298 K.
To confirm that Mabε is Ep1MabF1's target, a ^1H-^15N-HSQC NMR titration experiment in the presence (1:5 molar ratio of Mabε and Ep1MabF1) and absence of the compound was performed. Significant changes in chemical shift were (CSP >0.15 ppm) detected for the backbone resonances of amino acids V9, A10, R13, E14, G68-172, V77 and 179-A81 (FIGS. 14C and 15). […] In addition, we measured R2 relaxation data in the presence of Ep1MabF1 and calculated the changes of R2 values between the compound-free and compound-bound protein.

[4] = biological target: T1, Mabε (M. abscessus F-ATP synthase subunit ε); assay: NMR titration of Mabε with MgATP; format: binding, Mycobacterium abscessus; settings: molar ratio of Mabε to MgATP of 1:10
Excerpt: In thermophilic Bacillus PS3, Bacillus subtilis and chloroplasts, the C terminus of E is described as a mobile regulatory element, altering its conformation in response to nucleotide conditions or the ion motive force (IMF). ATP binding in E of thermophilic Bacillus PS3 and Bacillus subtilis forces the C-terminal helices into a hairpin conformation, which extends in the absence of the nucleotide, leading to an inhibited ATP hydrolysis state. Here, we used the high-quality NMR spectra of Mabε and performed NMR titration experiments in the presence of MgATP (molar ratio of Mabε to MgATP of 1:10). […] ATP binding of the M. smegmatis subunit E was also not observed in the recent cryo-EM structure of the M. smegmatis F-ATP synthase (Guo, H. et al., Nature 2021, 589, 143-147), underlining that the mycobacterial E subunits are not regulated via nucleotide binding to this rotary subunit.

T1 sequence (B1MLW3 2-121): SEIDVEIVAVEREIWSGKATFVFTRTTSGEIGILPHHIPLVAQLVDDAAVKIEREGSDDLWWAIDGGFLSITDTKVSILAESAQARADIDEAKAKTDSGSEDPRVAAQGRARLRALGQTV

Q: Which MIC50 [1] does the source give for `Cc1cccc(Cc2nc3ccccc3n2CCC(=O)NCc2ccccn2)c1` [Ep1MabF1, 3-(2-(3-methylbenzyl)-1H-benzo[d]imidazol-1-yl)-N-(pyridin-2-ylmethyl)propanamide] here?
A: Its MIC50 is 420 ± 14 µM (≈ 161 µg/mL).

Q: What about the IC50 [2] of the same compound?
A: The IC50 was 600 ± 30 µM.

Q: What about the “chemical shift perturbation (CSP) of Mabε backbone resonances” value [3] of the same compound?
A: Its value is greater than 0.15 ppm.

Q: How did the “chemical shift change of Mabε in 15N HSQC after addition of nucleotide (binding)” value [4] turn out when `Nc1ncnc2c1ncn2[C@@H]1O[C@H](COP(=O)(O)OP(=O)([O-])OP(=O)([O-])O)[C@@H](O)[C@H]1O.[Mg+2]` [MgATP] was run?
A: Its value is “no obvious chemical shift was observed”.
